Test results as given in the NIST ThermoML archive (doi:10.1021/acs.jced.9b00846).

Settings: Liquid, Vibrating tube method

CC(C)C(C)C(C)C [2,3,4-trimethylpentane]
Settings | mass density [kg/m3]
283.15 K, 130 kPa | 728.3
283.15 K, 4973 kPa | 732.2
283.15 K, 9993 kPa | 736
283.15 K, 14965 kPa | 739.6
283.15 K, 20000 kPa | 743
283.15 K, 25003 kPa | 746.3
283.15 K, 29990 kPa | 749.5
283.15 K, 35009 kPa | 752.5
283.15 K, 39961 kPa | 755.4
283.15 K, 45014 kPa | 758.3
283.15 K, 49986 kPa | 761
283.15 K, 54944 kPa | 763.6
283.15 K, 60030 kPa | 766.3
283.15 K, 65014 kPa | 768.8
288.15 K, 102 kPa | 724.3
288.15 K, 5015 kPa | 728.4
288.15 K, 9991 kPa | 732.3
288.15 K, 14975 kPa | 736
288.15 K, 20038 kPa | 739.6
288.15 K, 25021 kPa | 743
288.15 K, 29929 kPa | 746.1
288.15 K, 35037 kPa | 749.3
288.15 K, 40039 kPa | 752.3
288.15 K, 44998 kPa | 755.2
288.15 K, 49927 kPa | 757.9
288.15 K, 54967 kPa | 760.6
288.15 K, 59925 kPa | 763.2
288.15 K, 65032 kPa | 765.9
293.15 K, 111 kPa | 720.4
293.15 K, 5021 kPa | 724.6
293.15 K, 9998 kPa | 728.6
293.15 K, 14997 kPa | 732.4
293.15 K, 19997 kPa | 736.1
293.15 K, 25022 kPa | 739.6
293.15 K, 29930 kPa | 742.8
293.15 K, 34968 kPa | 746
293.15 K, 39974 kPa | 749.1
293.15 K, 45009 kPa | 752
293.15 K, 49965 kPa | 754.9
293.15 K, 54987 kPa | 757.6
293.15 K, 59945 kPa | 760.3
293.15 K, 65000 kPa | 762.9
298.15 K, 105 kPa | 716.2
298.15 K, 5072 kPa | 720.6
298.15 K, 9964 kPa | 724.7
298.15 K, 15013 kPa | 728.7
298.15 K, 20054 kPa | 732.5
298.15 K, 25008 kPa | 736
298.15 K, 29968 kPa | 739.4
298.15 K, 34937 kPa | 742.6
298.15 K, 40018 kPa | 745.8
298.15 K, 45064 kPa | 748.8
298.15 K, 50010 kPa | 751.7
298.15 K, 55015 kPa | 754.5
298.15 K, 59955 kPa | 757.2
298.15 K, 65024 kPa | 759.9
303.15 K, 100 kPa | 712
303.15 K, 4934 kPa | 716.5
303.15 K, 10038 kPa | 720.9
303.15 K, 14973 kPa | 724.9
303.15 K, 19957 kPa | 728.7
303.15 K, 25002 kPa | 732.4
303.15 K, 29980 kPa | 735.9
303.15 K, 34972 kPa | 739.3
303.15 K, 39972 kPa | 742.5
303.15 K, 44990 kPa | 745.6
303.15 K, 49984 kPa | 748.5
303.15 K, 54948 kPa | 751.4
303.15 K, 59951 kPa | 754.2
303.15 K, 65040 kPa | 756.9
308.15 K, 92 kPa | 707.8
308.15 K, 5051 kPa | 712.5
308.15 K, 9961 kPa | 716.8
308.15 K, 14959 kPa | 721
308.15 K, 20027 kPa | 725
308.15 K, 25025 kPa | 728.8
308.15 K, 29996 kPa | 732.4
308.15 K, 34959 kPa | 735.7
308.15 K, 40017 kPa | 739.1
308.15 K, 45023 kPa | 742.2
308.15 K, 49965 kPa | 745.2
308.15 K, 54977 kPa | 748.2
308.15 K, 60020 kPa | 751
308.15 K, 64995 kPa | 753.8
313.15 K, 99 kPa | 703.6
313.15 K, 4997 kPa | 708.5
313.15 K, 9998 kPa | 713.1
313.15 K, 15010 kPa | 717.4
313.15 K, 19994 kPa | 721.4
313.15 K, 25007 kPa | 725.3
313.15 K, 29995 kPa | 729
313.15 K, 35008 kPa | 732.4
313.15 K, 39993 kPa | 735.8
313.15 K, 45005 kPa | 739
313.15 K, 49990 kPa | 742.1
313.15 K, 55003 kPa | 745.1
313.15 K, 59996 kPa | 748
313.15 K, 64993 kPa | 750.8
318.15 K, 104 kPa | 699.5
318.15 K, 4961 kPa | 704.4
318.15 K, 10003 kPa | 709.2
318.15 K, 15026 kPa | 713.7
318.15 K, 19937 kPa | 717.8
318.15 K, 25012 kPa | 721.8
318.15 K, 29990 kPa | 725.5
318.15 K, 34991 kPa | 729.1
318.15 K, 39976 kPa | 732.5
318.15 K, 45028 kPa | 735.8
318.15 K, 49973 kPa | 739
318.15 K, 54916 kPa | 742
318.15 K, 59988 kPa | 744.9
318.15 K, 65015 kPa | 747.8
323.15 K, 111 kPa | 695.4
323.15 K, 5025 kPa | 700.6
323.15 K, 10013 kPa | 705.5
323.15 K, 14973 kPa | 710
323.15 K, 20028 kPa | 714.4
323.15 K, 25014 kPa | 718.4
323.15 K, 29976 kPa | 722.2
